These results are taken from patent publication US20230257444A1, “FUSION PROTEIN AND COMBINATIONS THEREOF” (Agency for Science, Technology and Research, priority 2020, published 2023).

One experiment has as its system SC5314 Candida albicans. The experiment is described as follows: In vitro combination therapy checkerboard dilution assay (Amphotericin B & hDectin1-Fc) with human primary macrophages. Format: cell-based. The note with it: 24 hours, 37° C.
The test system of another experiment is Candida albicans. Nature of the experiment: Minimum inhibitory concentration assay (CLSI reference method). Format: cell-based. The note with it: 37° C. From the text: Linker conjugation site and its length can affect the activity of drug in the way it is able to interact with its target as a result of a change in preferred conformation. Amphotericin B has two possible sites of conjugation: the carboxylic acid on the macrocyclic ring (C-linked) and the amine on the sugar (N-linked). To investigate how conjugation to each of these sites affects the activity of Amphotericin B, polyethylene glycol (PEG) linkers of three different repeat units were attached to them (FIG. 20) and their MIC of Candida albicans evaluated against the unconjugated free Amphotericin B.
The MIC assay of the N-linked and C-linked PEG conjugated Amphotericin B was conducted for 3 different PEG lengths of 4, 12 and 24 repeat units versus unconjugated Amphotericin B (Table 3). The PEG conjugated Amphotericin B and free Amphotericin B were diluted and incubated at 37° C. for 24 hrs with […] Candida albicans cells/well according to the CLSI reference method for antifungal susceptibility testing of yeasts.

Description for SC5314 Candida albicans: Human peripheral blood CD14+ monocytes were cultured at 1×10^6 cells/mL in 5 mL of ImmunoCult™-SF Macrophage Differentiation Medium with Human Recombinant M-CSF at 50 ng/ml in a T-25 flask at 37° C. in a 5% CO2 incubator. On Day 4, 2.5 mL of fresh ImmunoCult™-SF Macrophage Differentiation Medium was added to the flask. On Day 6, M1 activation was initiated with the addition of 50 ng/mL IFN-γ. On Day 8, the macrophages were treated with ACCUTASE and scrapped from the flask. The cells were centrifuged and resuspended in RPMI medium with 10% FBS and seeded into 96 well plates at 10^5 cells/well. The co-culture assay involves the addition of 10^5 cells/well of SC5314 Candida albicans cells to wells containing 10^5 cells/well of human primary macrophages cells with final concentration of hDectin1-Fc at 0, 1, 10 or 100 g/ml and varying concentration of Amphotericin B in a checkerboard dilution assay format in a 96 well plate. The assay was incubated for 24 hr at 37° C. in a 5% CO2 atmosphere incubator and the MIC and MFC determined visual using a Nikon Eclipse Ti-E inverted microscope.
10′ Candida albicans cells and 10′ human primary macropahges were seeded per well in a checkerboard dilution assay of Amphotericin B with the respective concentration of hDectin1-Fc (0, 10, 100 μg/ml) and incubated for 24 hours at 37° C.

On to `C[C@@H]1[C@H](O)[C@@H](C)/C=C/C=C/C=C/C=C/C=C/C=C/C=C/[C@H](O[C@@H]2O[C@H](C)[C@@H](O)[C@H](N)[C@@H]2O)C[C@@H]2O[C@](O)(C[C@@H](O)C[C@@H](O)[C@H](O)CC[C@@H](O)C[C@@H](O)CC(=O)O[C@H]1C)C[C@H](O)[C@H]2C(=O)O` [Amphotericin B], for which the “basal MFC of Amphotericin B” value in the experiment with SC5314 Candida albicans (absence of hDectin1-Fc) turned out to be 0.11 µM. Besides, the “MFC of Amphotericin B” value with SC5314 Candida albicans (hDectin1-Fc concentration of 100 µg/ml) stood at 0.06 µM. The “24hr MIC” value in the experiment with Candida albicans came to 0.75 μm.
